Measurements: patent US11185524B2 (Novus International, Inc., priority 2019, dated 2021)
Marks after values point to notes of the source that are not given here.

What was measured:
[1] = tested on: rumen microorganisms; assay: In vitro evaluation of rumen protection: degradation by rumen microorganisms in rumen fluid incubation; assay type: in vitro ADME, Holstein steers (rumen fluid donors); conditions: male, Holstein, cattle, 12 h
Experimental: Schematics of the HMTBa derivatives are presented below in Table. 1. Following the methodology of Patterson and Kung (J. Dairy Sci., 1988, vol. 71, pp. 3292-3301), fermentation substrate comprising casein, cellobiose, starch, pectin, and cellulose was added at a rate of 0.45 g to 250 mL fermentation flasks. HMTBa derivatives were randomly assigned to flasks and thoroughly mixed to ensure that all compounds were incorporated into the substrate. Methionine hydroxy analog (MHA), polymer encapsulated methionine (eMet) were also included as controls, as well as a blank. A total of 28 fermentation flasks were used, resulting in 4 replicates per treatment for each of the two experiments. Three cannulated Holstein steers were utilized as rumen fluid donors. Steers were housed on pasture, allowed to graze freely, and provided free choice supplement. Approximately 1000 mL of rumen fluid and a handful of rumen contents were obtained from each steer. Rumen fluid and contents were combined in pre-heated thermoses, transported to the lab, blended using a hand blender, and strained through 8 layers of cheese cloth. Combined rumen fluid was maintained under CO2 and thoroughly mixed. […] Due to variability associated with in vitro methodology, replicates were evaluated for similarity. […] Recovery of HMTBa or methionine was determined and expressed relative to initial amount of HMTBA or methionine (active) added. […]

[2] = in vivo

SMILES | Free Active recovered [1] | Ruminal undegradability (estimated ruminal stability) [1] | HMTBa in plasma [2] | L-methionine in plasma [2] | Methionine equivalents in plasma (sum of L-methionine, D-methionine, and HMTBa) [2]
CSCCC1OC(=O)C(CCSC)OC1=O (centres unmarked) [Cyclic Dimer, 3,6-bis(2-methylthio)ethyl-1,4-dioxane-2,5-dione] | 439.6^c ppm | 56.64^c | – | – | –
CSCCC(O)C(=O)O (centres unmarked) [MHA, Methionine hydroxy analog] | – | – | 0.324^a μg/mL | 5.312^a μg/mL | 5.666^a μg/mL
